Assay results: patent US6121290A, “Use of GABA uptake inhibitors as anti-tussive agents” (SmithKline Beecham Corporation, priority 1998, dated 2000)

Legend:
[1] = tested on: citric acid-induced cough; experiment: Citric acid-induced cough in guinea pigs (anti-tussive activity in vivo); parameters: species or system Male Hartley Guinea pigs; conditions: 0.4M citric acid, 30 min pre-treatment; for Treated (incidences of cough): coughs in 13 minutes; for % Inhibition: cough inhibition vs control
Experimental: Citric acid was nebulized for only one minute to the animals. Coughs were determined by examination of the flow signal and observation of the test animals.
To perform the experiments Male Hartley Guinea pigs weighing between 550, and 750 g were placed into a clear plastic exposure chamber with an internal volume of 6 l. A bias air flow was applied to the chamber at a flow rate of 2 l/min for the duration of the experiment.
An incidence of cough was denoted by a larger than normal inspiration (at least twice normal tidal deflection) followed immediately by a rapid, forceful expiration (more than three times the normal excursion from baseline). A cough was easily distinguished from animal movement, augmented breaths and gasps by close inspection of the data. Because a sneeze and cough have similar flow patterns, they were differentiated by visual observation of the animals.
Test compounds were administered via the IP route, and the pre-treatment time was 30 min. The aerosol was administered to the animals by connecting a small volume ultrasonic nebulizer (AeroSonic model 5000D Devilbis Sumerset, Pa.) to the bias-flow immediately before the exposure chamber inlet. The animals were challenged with 0.4M citric acid aerosol solution. A volume of 2 ml of citric acid solution was placed in the ultrasonic nebulizer. In one minute approximately 0.5 ml of the solution was nebulized to each animal. This has been previously shown to induce the cough reflex. The incidences of cough in 13 minutes (aerosolization time+observation time,) as well as time to onset of the first cough were recorded.

GABA uptake = conditions: in words, from cited literature; cited from earlier work
[2] = tested on: citric acid-induced cough; experiment: Citric acid-induced cough in guinea pigs (anti-tussive activity in vivo); parameters: species or system Male Hartley Guinea pigs; conditions: 0.4M citric acid; for Treated (incidences of cough): coughs in 13 minutes; for % Inhibition: cough inhibition vs control

O=C(O)C1CCCNC1 (centres unmarked) [Compound 2, 3-piperidinecarboxylic acid]
Treated (incidences of cough) ([1]; 20 mg ip): 9.75 | % Inhibition ([1]; 20 mg ip): 28.36%

O=C(O)C1=CCCN(CCC=C(c2ccccc2)c2ccccc2)C1 [Compound 5, N-(4,4-diphenyl-3-butenyl)-1,2,5,6-tetrahydro-3-pyridinecarboxylic acid]
Treated (incidences of cough) ([1]; 1 mg ip): 15.4 | % Inhibition ([1]; 1 mg ip): 5.79% | Treated (incidences of cough) ([1]; 3 mg ip): 12.4 | % Inhibition ([1]; 3 mg ip): 20.53% | Treated (incidences of cough) ([1]; 30 mg ip): 1 | % Inhibition ([1]; 30 mg ip): 92.48%

O=C(O)[C@@H]1CNCC[C@@H]1O (relative stereo) [Compound 6, cis4-hydroxy-3-piperidinecarboxylic acid]
Treated (incidences of cough) ([1]; 10 mg ip): 16.3 | % Inhibition ([1]; 10 mg ip): 8.21% | Treated (incidences of cough) ([1]; 20 mg ip): 8.6 | % Inhibition ([1]; 20 mg ip): 35.82%

O=C(O)C1=CCCNC1 [Compound 4, 1,2,5,6-tetrahydro-3-pyridinecarboxylic acid]
GABA uptake inhibitory activity (GABA uptake): having GABA uptake inhibitory activity | Treated (incidences of cough) ([1]; 6 mg ip): 7.6 | % Inhibition ([1]; 6 mg ip): 48.30% | Treated (incidences of cough) ([1]; 20 mg ip): 4.75 | % Inhibition ([1]; 20 mg ip): 67.69%

Cc1ccsc1C(=CCCN1CCC[C@@H](C(=O)O)C1)c1sccc1C [(R)-1-[4,4-bis(3-methyl-2-thienyl)-3-butenyl]-3-piperidinecarboxylic acid, reference compound]
GABA uptake inhibitory activity (GABA uptake): having GABA uptake inhibitory activity

O=C(O)CC1CCN(CCC=C(c2ccccc2)c2ccccc2)C1 (centres unmarked) [Compound 1, N-(4,4-diphenyl-3-butenyl)-3-pyrrolidineacetic acid]
Treated (incidences of cough) ([1]; 20 mg ip): 7.2 | % Inhibition ([1]; 20 mg ip): 53.13%

O=C(O)[C@@H]1CCCN(CCC=C(c2ccccc2)c2ccccc2)C1 [Compound 3, (R)-N-(4,4-diphenyl-3-butenyl)-3-piperidinecarboxylic acid]
Treated (incidences of cough) ([2]; 10 mg po): 8.2 | % Inhibition ([2]; 10 mg po): 42.25% | Treated (incidences of cough) ([2]; 30 mg po): 8 | % Inhibition ([2]; 30 mg po): 43.66% | GABA uptake inhibitory activity (GABA uptake): having GABA uptake inhibitory activity | Treated (incidences of cough) ([1]; 1 mg ip): 6.6 | % Inhibition ([1]; 1 mg ip): 49.23% | Treated (incidences of cough) ([1]; 10 mg ip): 2.8 | % Inhibition ([1]; 10 mg ip): 78.46%
